21 molecules from PubChem BioAssay AID248 (DTP/NCI, 2004) can be followed below.

Each structure is given as a SMILES string. Where “and” joins values, the source holds several entries; their conditions need not be identical. Identical values can stand only once. Inconclusive results and toxic doses are left out.

The test system of the experiment is L1210 leukemia ip in BDF1 mice, survival T/C. Put plainly: NCI In Vivo Anticancer Drug Screen. Data for tumor model L1210 Leukemia (intraperitoneal) in B6D2F1 (BDF1) mice. As to conditions: endpoint: mean survival time, higher = longer survival. In a few lines:
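Survival endpoint. Drug-treated group vs vehicle group, expressed as T divided by C. Tumor passaged by transplantation.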

Setting [1] is: dose: 100.0 mg/kg/injection, schedule: Q01DX001 (ip), vehicle: other.
The mark [2] stands for this setting: dose: 200.0 mg/kg/injection, schedule: Q01DX001 (ip), vehicle: other.
Setting [3] is: dose: 400.0 mg/kg/injection, schedule: Q01DX001 (ip), vehicle: other.
Where [4] appears, read: dose: 100.0 mg/kg/injection, schedule: Q01DX001 (ip), vehicle: Klucel (hydroxypropylcellulose) (HPC).
The mark [5] stands for this setting: dose: 100.0 mg/kg/injection, schedule: Q01DX009 (ip), vehicle: Klucel (hydroxypropylcellulose) (HPC).
Setting [6] is: dose: 100.0 mg/kg/injection, schedule: Q04DX003 (ip), vehicle: Klucel (hydroxypropylcellulose) (HPC).
The mark [7] stands for this setting: dose: 200.0 mg/kg/injection, schedule: Q01DX001 (ip), vehicle: Klucel (hydroxypropylcellulose) (HPC).
The mark [8] stands for this setting: dose: 200.0 mg/kg/injection, schedule: Q01DX009 (ip), vehicle: Klucel (hydroxypropylcellulose) (HPC).
Where [9] appears, read: dose: 200.0 mg/kg/injection, schedule: Q04DX003 (ip), vehicle: Klucel (hydroxypropylcellulose) (HPC).
[10] abbreviates: dose: 25.0 mg/kg/injection, schedule: Q04DX003 (ip), vehicle: saline.
Where [11] appears, read: dose: 100.0 mg/kg/injection, schedule: Q01DX001 (ip), vehicle: saline.
Setting [12] is: dose: 200.0 mg/kg/injection, schedule: Q01DX001 (ip), vehicle: saline.
The mark [13] stands for this setting: dose: 400.0 mg/kg/injection, schedule: Q01DX001 (ip), vehicle: saline.
Where [14] appears, read: dose: 100.0 mg/kg/injection, schedule: Q01DX009 (ip), vehicle: saline with Tween-80.
Setting [15] is: dose: 200.0 mg/kg/injection, schedule: Q01DX009 (ip), vehicle: saline with Tween-80.
Setting [16] is: dose: 400.0 mg/kg/injection, schedule: Q04DX003 (ip), vehicle: Klucel (hydroxypropylcellulose) (HPC).
[17] abbreviates: dose: 400.0 mg/kg/injection, schedule: Q01DX001 (ip), vehicle: Klucel (hydroxypropylcellulose) (HPC).

For the molecule `COc1nc(=O)n(C2CCCO2)cc1Br` (stereo not given), the T/C by setting is: under setting [1], 107 % of control; under setting [2], 96 % of control; under setting [3], 98 % of control.

On to `N#CC(CC(=O)O)=C(c1ccccc1)c1ccccc1`, for which the T/C runs as follows: under setting [4], 106 % of control; under setting [5], 97 % of control and 104 % of control; (dose: 100.0 mg/kg/injection, schedule: Q04DX002 (ip), vehicle: Klucel (hydroxypropylcellulose) (HPC)) 96 % of control and 98 % of control; under setting [6], 97 % of control; under setting [7], 110 % of control; under setting [8], 95 % of control and 101 % of control. The T/C (dose: 200.0 mg/kg/injection, schedule: Q04DX002 (ip), vehicle: Klucel (hydroxypropylcellulose) (HPC)) was 95 % of control and 101 % of control; the T/C under setting [9] was 101 % of control.

Regarding `CC(=O)OCCN1CCN(CCCN2c3ccccc3Sc3ccc(C(F)(F)F)cc32)CC1`, the T/C is 114 % of control (dose: 9.5 mg/kg/injection, schedule: Q04DX003 (ip), vehicle: saline with Tween-80); 106 % of control (dose: 12.5 mg/kg/injection, schedule: Q04DX003 (ip), vehicle: saline); 120 % of control and 123 % of control (dose: 22.0 mg/kg/injection, schedule: Q04DX003 (ip), vehicle: saline with Tween-80); 116 % of control under setting [10]; 93 % of control (dose: 33.0 mg/kg/injection, schedule: Q04DX003 (ip), vehicle: saline sonified); 102 % of control (dose: 33.3 mg/kg/injection, schedule: Q04DX003 (ip), vehicle: saline with Tween-80). The T/C by setting is: (dose: 50.0 mg/kg/injection, schedule: Q04DX003 (ip), vehicle: saline with Tween-80) 150 % of control; under setting [11], 106 % of control.

Turning to `CCCCCCCCCCCC(=O)OCCOCCOCCOCCOCCOCCOCCOCCOCCO`, the T/C under setting [11] was 104 % of control, the T/C under setting [12] was 98 % of control and the T/C under setting [13] was 98 % of control.

Regarding `Cc1cc(-c2nnc(-c3ccc(O)c(C)c3)nn2)ccc1O`, the T/C reads like this: under setting [14], 94 % of control; under setting [15], 94 % of control; (dose: 400.0 mg/kg/injection, schedule: Q01DX009 (ip), vehicle: saline with Tween-80) 91 % of control.

`CNC(CNC(CO)CC(C)C)Cc1ccc(OCc2ccccc2)cc1` (stereo not given): the T/C is 102 % of control (dose: 12.5 mg/kg/injection, schedule: Q01DX009 (ip), vehicle: saline); 91 % of control (dose: 25.0 mg/kg/injection, schedule: Q01DX009 (ip), vehicle: saline); 95 % of control under setting [10]; 94 % of control (dose: 50.0 mg/kg/injection, schedule: Q01DX009 (ip), vehicle: saline); 95 % of control (dose: 50.0 mg/kg/injection, schedule: Q04DX003 (ip), vehicle: saline); 95 % of control (dose: 100.0 mg/kg/injection, schedule: Q04DX003 (ip), vehicle: saline).

With `Clc1ccc(OCOc2ccc(Cl)cc2)cc1`, the T/C reads like this: under setting [6], 106 % of control; under setting [9], 98 % of control; under setting [16], 92 % of control.

On to `CC(=O)OCC1OC2OC(c3ccccc3)=NC2C(OC(C)=O)C1OC(C)=O` (stereo not given), for which the T/C by setting is: (dose: 22.5 mg/kg/injection, schedule: Q01DX001 (ip), vehicle: carboxymethylcellulose (CMC)) 97 % of control; (dose: 45.0 mg/kg/injection, schedule: Q01DX001 (ip), vehicle: carboxymethylcellulose (CMC)) 103 % of control; (dose: 90.0 mg/kg/injection, schedule: Q01DX001 (ip), vehicle: carboxymethylcellulose (CMC)) 105 % of control; (dose: 180.0 mg/kg/injection, schedule: Q01DX001 (ip), vehicle: carboxymethylcellulose (CMC)) 97 % of control.

For the molecule `O=[N+]([O-])c1ccc(N=Nc2ccc(O)cc2)c([N+](=O)[O-])c1`, the T/C reads like this: (dose: 50.0 mg/kg/injection, schedule: Q01DX001 (ip), vehicle: carboxymethylcellulose (CMC)) 100 % of control; (dose: 100.0 mg/kg/injection, schedule: Q01DX001 (ip), vehicle: carboxymethylcellulose (CMC)) 106 % of control; (dose: 200.0 mg/kg/injection, schedule: Q01DX001 (ip), vehicle: carboxymethylcellulose (CMC)) 105 % of control.

In the case of `CC1=CC(=O)C(C)(C(Cl)Cl)C=C1` (stereo not given), the T/C is 95 % of control (dose: 100.0 mg/kg/injection, schedule: Q04DX003 (ip), vehicle: saline with Tween-80) and 97 % of control (dose: 200.0 mg/kg/injection, schedule: Q04DX003 (ip), vehicle: saline with Tween-80).

As to `CC1CCc2nc(C#N)c(N)nc2C1` (stereo not given), the T/C is, setting by setting: (dose: 50.0 mg/kg/injection, schedule: Q01DX009 (ip), vehicle: Klucel (hydroxypropylcellulose) (HPC)) 103 % of control; under setting [5], 97 % of control; under setting [8], 106 % of control.

With `COc1ccc(Cc2ccc(OC)c(OC)c2)cc1OC`, the T/C (dose: 200.0 mg/kg/injection, schedule: Q04DX003 (ip), vehicle: acetone) was 124 % of control and the T/C (dose: 400.0 mg/kg/injection, schedule: Q04DX003 (ip), vehicle: acetone) is 100 % of control.

Consider `CCc1ccc(C(C)(C)C)cc1`, for which the T/C runs as follows: (dose: 50.0 mg/kg/injection, schedule: Q01DX009 (ip), vehicle: saline with Tween-80) 95 % of control; under setting [14], 95 % of control; under setting [15], 107 % of control.

As to `CC12CCC3c4ccc(O)c(N)c4CCC3C1CCC2=O` (stereo not given), the T/C was 102 % of control under setting [4], 102 % of control under setting [7] and 101 % of control under setting [17].

Turning to `O=C(Nc1scc2c1sc1ccccc12)c1ccccc1`, the T/C under setting [4] is 93 % of control, the T/C under setting [7] is 93 % of control and the T/C under setting [17] was 107 % of control.

As to `CCCCC(O)(C#CC(O)(CC)CCCC)CC` (stereo not given), the T/C under setting [1] is 103 % of control, the T/C under setting [2] is 105 % of control and the T/C under setting [3] is 102 % of control.

Regarding `CCOC(=O)C(C(=O)CC)=P(c1ccccc1)(c1ccccc1)c1ccccc1`, the T/C by setting is: (dose: 100.0 mg/kg/injection, schedule: Q01DX005 (ip), vehicle: Klucel (hydroxypropylcellulose) (HPC)) 113 % of control; under setting [5], 97 % of control; (dose: 200.0 mg/kg/injection, schedule: Q01DX005 (ip), vehicle: Klucel (hydroxypropylcellulose) (HPC)) 88 % of control; under setting [8], 108 % of control; (dose: 400.0 mg/kg/injection, schedule: Q01DX005 (ip), vehicle: Klucel (hydroxypropylcellulose) (HPC)) 98 % of control; (dose: 400.0 mg/kg/injection, schedule: Q01DX009 (ip), vehicle: Klucel (hydroxypropylcellulose) (HPC)) 110 % of control.

For `CSC(=O)SC`, the T/C under setting [14] is 101 % of control.

Turning to `O=c1c([N+](=O)[O-])cc([N+](=O)[O-])cn1O`, the T/C reads like this: under setting [6], 100 % of control; under setting [9], 100 % of control; under setting [16], 90 % of control.

On to `CC1=NC(C)(C)CO1`, for which the T/C by setting is: under setting [11], 101 % of control; under setting [12], 97 % of control; under setting [13], 95 % of control.

As to `CC(CCCN(CCCl)CCCl)Nc1ccnc2cc(Cl)ccc12` (stereo not given), the T/C (dose: 5.0 mg/kg/injection, schedule: Q01DX001 (ip), vehicle: saline) is 119 % of control and the T/C (dose: 10.0 mg/kg/injection, schedule: Q01DX001 (ip), vehicle: saline) is 105 % of control.
